According to the NIST ThermoML archive (doi:10.1016/j.jct.2012.11.007):
± gives the expanded uncertainty stated by the source.

Assay: mn = molality of the nth substance listed, in mol/kg
Conditions: 101 kPa, Liquid; for mass density: Vibrating tube method; for speed of sound: Pulse-echo method

CCNC(N)=O [ethylurea] + O
Conditions	mass density, 288.15 K [kg/m3]	mass density, 293.15 K [kg/m3]	mass density, 298.15 K [kg/m3]	mass density, 303.15 K [kg/m3]	mass density, 308.15 K [kg/m3]	speed of sound, 298.15 K [m/s]
m1 = 0.06285	999.725 ± 0.23	998.807 ± 0.23	997.629 ± 0.23	996.213 ± 0.23	994.58 ± 0.23	1500 ± 1.2
m1 = 0.1203	1000.29 ± 0.24	999.358 ± 0.24	998.163 ± 0.24	996.73 ± 0.24	995.083 ± 0.24	1503.1 ± 1.3
m1 = 0.179	1000.88 ± 0.24	999.919 ± 0.24	998.707 ± 0.24	997.258 ± 0.24	995.602 ± 0.24	1506.2 ± 1.3
m1 = 0.2358	1001.44 ± 0.25	1000.47 ± 0.25	999.234 ± 0.24	997.769 ± 0.24	996.09 ± 0.24	1509.1 ± 1.3
m1 = 0.3016	1002.09 ± 0.25	1001.09 ± 0.25	999.839 ± 0.25	998.357 ± 0.25	996.661 ± 0.25	1512.5 ± 1.3

CNC(N)=O [methylurea] + O
Conditions	mass density, 288.15 K [kg/m3]	mass density, 293.15 K [kg/m3]	mass density, 298.15 K [kg/m3]	mass density, 303.15 K [kg/m3]	mass density, 308.15 K [kg/m3]	speed of sound, 298.15 K [m/s]
m1 = 0.06094	999.856 ± 0.23	998.94 ± 0.23	997.762 ± 0.23	996.348 ± 0.23	994.718 ± 0.23	1499.1 ± 1.2
m1 = 0.1225	1000.62 ± 0.24	999.688 ± 0.24	998.491 ± 0.24	997.062 ± 0.24	995.418 ± 0.24	1501.5 ± 1.3
m1 = 0.1837	1001.38 ± 0.24	1000.42 ± 0.24	999.21 ± 0.24	997.766 ± 0.24	996.108 ± 0.24	1503.9 ± 1.3
m1 = 0.2452	1002.13 ± 0.24	1001.16 ± 0.24	999.928 ± 0.24	998.469 ± 0.24	996.799 ± 0.24	1506.3 ± 1.3
m1 = 0.3076	1002.89 ± 0.25	1001.9 ± 0.25	1000.66 ± 0.25	999.182 ± 0.25	997.498 ± 0.25	1508.7 ± 1.3

NC(N)=O [urea] + O
Conditions	mass density, 288.15 K [kg/m3]	mass density, 293.15 K [kg/m3]	mass density, 298.15 K [kg/m3]	mass density, 303.15 K [kg/m3]	mass density, 308.15 K [kg/m3]	speed of sound, 298.15 K [m/s]
m1 = 0.06521	1000.18 ± 0.23	999.268 ± 0.23	998.076 ± 0.23	996.664 ± 0.23	995.029 ± 0.23	1498.5 ± 1.2
m1 = 0.1233	1001.14 ± 0.23	1000.2 ± 0.23	998.994 ± 0.23	997.564 ± 0.23	995.915 ± 0.23	1500 ± 1.2
m1 = 0.1812	1002.09 ± 0.23	1001.13 ± 0.23	999.906 ± 0.23	998.455 ± 0.23	996.792 ± 0.23	1501.5 ± 1.2
m1 = 0.2403	1003.05 ± 0.23	1002.07 ± 0.23	1000.83 ± 0.23	999.361 ± 0.23	997.684 ± 0.23	1503.1 ± 1.2
m1 = 0.3004	1004.03 ± 0.23	1003.02 ± 0.23	1001.76 ± 0.23	1000.28 ± 0.23	998.584 ± 0.23	1504.6 ± 1.2
